According to publication PMC2818863 (Bioorganic & medicinal chemistry, 2009):

Key:
Format in all cases: biochemical
[1] = biological target: PLAP (Homo sapiens, UniProt P05187); assay: PLAP luminescent assay; conditions: for IC50: PLAP potency (IC50), mean ± SD of three experiments, CDP-star 85 μM
[2] = biological target: T1, IAP (Homo sapiens, UniProt P09923); assay: IAP luminescent assay; conditions: ratio IC50 IAP / IC50 PLAP
T1 sequence (P09923 20-503 limits assumed): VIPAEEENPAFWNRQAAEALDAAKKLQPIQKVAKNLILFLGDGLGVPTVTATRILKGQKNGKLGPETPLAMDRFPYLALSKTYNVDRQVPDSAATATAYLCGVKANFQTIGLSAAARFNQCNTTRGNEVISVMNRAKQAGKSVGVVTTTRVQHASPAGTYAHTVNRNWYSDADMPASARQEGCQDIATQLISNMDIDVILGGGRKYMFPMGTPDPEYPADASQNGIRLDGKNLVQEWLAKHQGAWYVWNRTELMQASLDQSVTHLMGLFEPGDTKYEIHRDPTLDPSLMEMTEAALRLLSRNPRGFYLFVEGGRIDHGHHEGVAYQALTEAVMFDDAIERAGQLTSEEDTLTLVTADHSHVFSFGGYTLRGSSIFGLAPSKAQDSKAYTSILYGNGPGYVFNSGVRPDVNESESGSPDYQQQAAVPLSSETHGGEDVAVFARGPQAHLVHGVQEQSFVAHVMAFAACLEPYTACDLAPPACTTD

[3] = biological target: GCAP (Homo sapiens, UniProt P10696); assay: GCAP luminescent assay; conditions: ratio IC50 GCAP / IC50 PLAP; for 12, 13, 20 from the separate-occasion values
[4] = biological target: T2, TNAP (Homo sapiens, UniProt P05186); assay: TNAP luminescent assay; conditions: ratio IC50 TNAP / IC50 PLAP
T2 sequence (P05186 18-502 limits assumed): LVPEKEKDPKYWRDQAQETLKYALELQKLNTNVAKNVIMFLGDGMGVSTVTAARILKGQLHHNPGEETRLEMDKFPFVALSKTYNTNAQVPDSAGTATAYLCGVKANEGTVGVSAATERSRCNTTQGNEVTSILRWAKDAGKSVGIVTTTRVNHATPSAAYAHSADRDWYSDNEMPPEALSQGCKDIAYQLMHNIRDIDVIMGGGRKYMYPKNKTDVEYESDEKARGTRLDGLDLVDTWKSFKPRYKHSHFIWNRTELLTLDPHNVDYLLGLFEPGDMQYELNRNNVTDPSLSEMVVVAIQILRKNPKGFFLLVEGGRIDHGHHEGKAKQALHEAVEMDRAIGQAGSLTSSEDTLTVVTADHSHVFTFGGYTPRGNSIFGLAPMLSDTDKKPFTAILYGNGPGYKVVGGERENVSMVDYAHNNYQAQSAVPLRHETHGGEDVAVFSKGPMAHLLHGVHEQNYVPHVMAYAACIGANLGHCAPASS

PLAP, sequence (P05187 23-506 limits assumed): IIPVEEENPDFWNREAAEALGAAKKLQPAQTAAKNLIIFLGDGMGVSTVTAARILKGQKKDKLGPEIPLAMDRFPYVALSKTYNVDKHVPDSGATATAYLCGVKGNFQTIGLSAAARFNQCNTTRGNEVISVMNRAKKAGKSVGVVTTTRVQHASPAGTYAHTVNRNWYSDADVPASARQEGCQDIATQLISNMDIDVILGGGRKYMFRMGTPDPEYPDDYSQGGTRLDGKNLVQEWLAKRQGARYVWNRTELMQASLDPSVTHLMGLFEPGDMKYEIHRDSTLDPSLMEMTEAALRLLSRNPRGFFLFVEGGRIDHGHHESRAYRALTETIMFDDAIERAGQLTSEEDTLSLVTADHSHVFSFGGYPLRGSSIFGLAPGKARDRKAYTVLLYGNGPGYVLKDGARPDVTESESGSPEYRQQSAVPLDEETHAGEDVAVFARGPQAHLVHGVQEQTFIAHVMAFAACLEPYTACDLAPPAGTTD
GCAP, sequence (P10696 20-503 limits assumed): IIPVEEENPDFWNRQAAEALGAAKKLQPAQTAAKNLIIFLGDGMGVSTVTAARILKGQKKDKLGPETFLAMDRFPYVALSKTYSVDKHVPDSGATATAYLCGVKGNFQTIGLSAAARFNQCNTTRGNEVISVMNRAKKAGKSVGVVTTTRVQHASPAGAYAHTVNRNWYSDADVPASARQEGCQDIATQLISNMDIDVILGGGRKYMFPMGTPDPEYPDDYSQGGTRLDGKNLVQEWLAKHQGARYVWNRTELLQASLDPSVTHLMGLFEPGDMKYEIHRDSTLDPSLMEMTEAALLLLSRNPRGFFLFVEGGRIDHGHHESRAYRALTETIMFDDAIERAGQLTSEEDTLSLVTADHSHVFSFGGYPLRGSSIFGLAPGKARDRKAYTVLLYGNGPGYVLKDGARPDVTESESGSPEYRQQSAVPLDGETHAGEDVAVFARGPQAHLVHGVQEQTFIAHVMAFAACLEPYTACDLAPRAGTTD

| SMILES | IC50 [1] [µM] | PLAP inhibitory potency at 100 μM [1] | further results |
| --- | --- | --- | --- |
| Cc1cc(C)nc(SCC(=O)c2ccc(O)cc2)n1 [Compound 3] | > 100 | no PLAP inhibitory potency | – |
| Cc1cc(C)nc(SCC(=O)c2cccc(O)c2)n1 [Compound 4] | > 100 | no PLAP inhibitory potency | – |
| COc1cc(C(=O)CSc2nc(C)cc(C)n2)ccc1O [Compound 5] | > 100 | no PLAP inhibitory potency | – |
| Cc1cc(C)nc(SCC(=O)c2ccc3c(c2)OCO3)n1 [Compound 6] | > 100 | no PLAP inhibitory potency | – |
| COc1ccc(C(=O)CSc2nc(C)cc(C)n2)cc1 [Compound 7] | > 100 | no PLAP inhibitory potency | – |
| Cc1cc2ncn(CC(=O)c3ccc(O)c(O)c3)c2cc1C [Compound 18] | – | – | Selectivity (TNAP/PLAP) [4]: > 17 fold |
| Cc1cc(C(=O)NCc2ccc(O)c(O)c2)oc1C [Compound 25] | > 100 | – | – |
| Cc1cc(C(=O)NCCc2ccc(O)c(O)c2)oc1C [Compound 26] | > 100 | – | – |
| O=C(CSc1nnc(-c2ccccc2)[nH]1)c1ccc(O)c(O)c1 [Compound 28] | > 100 | – | – |
| Cn1c(SCC(=O)c2ccccc2)nnc1-c1cccc(N)c1 [Compound 29] | > 100 | – | – |

Further molecules by falling IC50 [1], results first:

| IC50 [1] [µM] | PLAP inhibitory potency at 100 μM [1] | SMILES | further results |
| --- | --- | --- | --- |
| 4.9 ± 0.6 | – | Cc1nc(Br)cn1CC(=O)c1ccc(O)c(O)c1 [Compound 19] | increase in PLAP inhibitory potency ([1]; 19 relative to 16): 3 fold |
| 3.3 ± 0.2 | – | Cc1nccn1CC(=O)c1ccc(O)c(O)c1 [Compound 12] | – |
| ~3 | – | O=C(Cn1ccnc1)c1ccc(O)c(O)c1 [Compound 8] | – |
| ~3 | – | CCc1nccn1CC(=O)c1ccc(O)c(O)c1 [Compound 13] | Selectivity (GCAP/PLAP) [3]: ^* (2.1) |
| 2.7 ± 0.1 | – | Cc1cnn(CC(=O)c2ccc(O)c(O)c2)c1 [Compound 10] | Selectivity (IAP/PLAP) [2]: > 25 fold |
| 2 ± 0.1 | – | COc1ccc(-n2nnnc2SCC(=O)c2ccc(O)c(O)c2)cc1 [Compound 32] | – |
